From US7718679B2, “Heteroaryl carboxamides” (Hoffman-La Roche Inc., priority 2006, dated 2010) come the findings set out here.

The assay concerns the target T1, human factor Xa (Homo sapiens, UniProt P00742).
T1 construct: Factor Xa is a serine endopeptidase composed of two disulfide-linked subunits; purchased Enzyme Research Laboratories
Nature of the assay: Factor Xa chromogenic peptide substrate (S-2222) assay. The class given is biochemical. The note with it: apparent Ki by Cheng-Prusoff from IC50; human factor Xa 3 nM, substrate S-2222, pH 7.8, room temperature.

T1 sequence (P00742 235-488 limits assumed): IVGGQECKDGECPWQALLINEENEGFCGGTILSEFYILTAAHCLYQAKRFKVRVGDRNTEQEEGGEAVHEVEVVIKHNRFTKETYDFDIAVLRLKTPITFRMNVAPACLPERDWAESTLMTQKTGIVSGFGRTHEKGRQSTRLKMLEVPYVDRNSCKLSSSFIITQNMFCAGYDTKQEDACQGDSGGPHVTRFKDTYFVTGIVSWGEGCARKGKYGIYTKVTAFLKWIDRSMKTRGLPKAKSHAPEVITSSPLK
T1 sequence (P00742 41-179 partner limits assumed): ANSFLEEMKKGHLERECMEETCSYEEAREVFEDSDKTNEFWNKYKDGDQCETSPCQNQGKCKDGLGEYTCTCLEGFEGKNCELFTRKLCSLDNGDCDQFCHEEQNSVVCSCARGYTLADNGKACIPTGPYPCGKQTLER
Method: Factor Xa activity was measured spectrophotometrically in microtiter plates in a final volume of 150 μl using the following conditions: Inhibition of human factor Xa (Enzyme Research Laboratories) was tested at an enzyme concentration of 3 nM using the chromogenic substrate S-2222 (Chromogenix AB, Mölndal, Sweden) at 200 nM. The reaction kinetics of the enzyme and the substrate were linear with both time and the enzyme concentration. The inhibitors were dissolved in DMSO and tested at various concentrations up to 100 μM. The inhibitors were diluted using HNPT buffer consisting of HEPES 100 mMM, NaCl 140 mM, PEG 6000 0.1% and Tween 80 0.02%, pH 7.8. […] The velocity of the reaction was determined by the autoreader from the slope of the linear regression fit to 7 time points (1 minute). The initial velocity for each inhibitor concentration was determined by the slope of at least 4 time points in the linear phase by a linear regression fit (mOD/min^2). Apparent dissociation constants Ki were calculated according to Cheng and Prusoff [Cheng, Y. C.; Prusoff, W. H. Relationship between the inhibition constant (Ki) and the concentration of the inhibitor that causes 50 percent inhibition (IC50) of an enzyme reaction. Biochem. Pharmacol. 1973, 22, 3099-3108.] based on the IC50 and the respective Km, determined previously (Ki=IC50/(1+S/Km)). […]

In the case of `O=C(Nc1ccc(N2CCOCC2=O)cc1)c1nc(CNC(=O)c2ccc(Cl)s2)no1` [Example 5, 3-{[(5-chloro-thiophene-2-carbonyl)-amino]-methyl}-[1,2,4]oxadiazole-5-carboxylic acid [4-(3-oxo-morpholin-4-yl)-phenyl]-amide], the Ki stood at 0.016 µM.

Consider `O=C(Nc1ccc(-n2ccncc2=O)cc1F)c1nc(CNC(=O)c2ccc(Cl)s2)no1` [Example 3, 3-{[(5-chloro-thiophene-2-carbonyl)-amino]-methyl}-[1,2,4]oxadiazole-5-carboxylic acid [2-fluoro-4-(2-oxo-2H-pyrazine-1-yl)-phenyl]-amide], for which the Ki stood at 0.007 µM.
